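Cultured in 96-well plates, cells were exposed to test compound for 48 hours across five concentrations. TGI: total growth inhibition.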
Key:
Assay in all cases: inhibition of tumour cell growth, NCI panel, 48 h
[1] = system: 786-0 renal
[2] = system: A498 renal
[3] = system: A549 NSCLC
[4] = system: ACHN renal
[5] = system: CAKI-1 renal
[6] = system: CCRF-CEM leukemia
[7] = system: COLO 205 colon
[8] = system: DLD-1 colon
[9] = system: DMS 114 small cell lung
[10] = system: DMS 273 small cell lung
[11] = system: EKVX NSCLC
[12] = system: HCC-2998 colon
[13] = system: HCT-116 colon
[14] = system: HCT-15 colon
[15] = system: HOP-18 NSCLC
[16] = system: HOP-62 NSCLC
[17] = system: HT29 colon
[18] = system: IGROV1 ovarian
[19] = system: K-562 leukemia
[20] = system: KM12 colon
[21] = system: KM20L2 colon
[22] = system: LOX IMVI melanoma
[23] = system: M14 melanoma
[24] = system: M19-MEL melanoma
[25] = system: MALME-3M melanoma
[26] = system: NCI-H226 lung
[27] = system: NCI-H23 lung
[28] = system: NCI-H460 lung
[29] = system: OVCAR-3 ovarian
[30] = system: OVCAR-4 ovarian
[31] = system: OVCAR-5 ovarian
[32] = system: OVCAR-8 ovarian
[33] = system: RPMI-8226 leukemia
[34] = system: RXF-631 renal
[35] = system: SF-268 CNS
[36] = system: SF-295 CNS
[37] = system: SF-539 CNS
[38] = system: SK-MEL-2 melanoma
[39] = system: SK-MEL-28 melanoma
[40] = system: SK-MEL-5 melanoma
[41] = system: SK-OV-3 ovarian
[42] = system: SN12C renal
[43] = system: SNB-19 CNS
[44] = system: SNB-75 CNS
[45] = system: SNB-78 CNS
[46] = system: SW-620 colon
[47] = system: TK-10 renal
[48] = system: U251 CNS
[49] = system: UACC-257 melanoma
[50] = system: UACC-62 melanoma
[51] = system: UO-31 renal
[52] = system: HOP-92 NSCLC
[53] = system: LXFL 529 NSCLC
[54] = system: MOLT-4 leukemia
[55] = system: NCI-H522 lung
[56] = system: RXF 393 renal
[57] = system: SR leukemia
[58] = system: XF 498 CNS
[59] = system: HL-60(TB) leukemia

c1ccc(C(c2ccccc2)c2cccnc2)cc1
TGI [1]: > 100 µM | TGI [2]: > 100 µM | TGI [3]: > 100 µM | TGI [4]: > 100 µM | TGI [5]: > 100 µM | TGI [6]: > 100 µM | TGI [7]: > 100 µM | TGI [8]: > 100 µM | TGI [9]: > 100 µM | TGI [10]: > 100 µM | TGI [11]: > 100 µM | TGI [12]: > 100 µM | TGI [13]: > 100 µM | TGI [14]: > 100 µM | TGI [15]: > 100 µM | TGI [16]: > 100 µM | TGI [17]: > 100 µM | TGI [18]: > 100 µM | TGI [19]: > 100 µM | TGI [20]: > 100 µM | TGI [21]: > 100 µM | TGI [22]: > 100 µM | TGI [23]: > 100 µM | TGI [24]: > 100 µM | TGI [25]: > 100 µM | TGI [26]: > 100 µM | TGI [27]: > 100 µM | TGI [28]: > 100 µM | TGI [29]: > 100 µM | TGI [30]: > 100 µM | TGI [31]: > 100 µM | TGI [32]: > 100 µM | TGI [33]: > 100 µM | TGI [34]: > 100 µM | TGI [35]: > 100 µM | TGI [36]: > 100 µM | TGI [37]: > 100 µM | TGI [38]: > 100 µM | TGI [39]: > 100 µM | TGI [40]: > 100 µM | TGI [41]: > 100 µM | TGI [42]: > 100 µM | TGI [43]: > 100 µM | TGI [44]: > 100 µM | TGI [45]: > 100 µM | TGI [46]: > 100 µM | TGI [47]: > 100 µM | TGI [48]: > 100 µM | TGI [49]: > 100 µM | TGI [50]: > 100 µM | TGI [51]: > 100 µM

O=C(O/C(=C(/N=Nc1ccccc1)c1ccccc1)c1ccccc1)c1ccccc1
TGI [1]: > 100 µM | TGI [3]: > 100 µM | TGI [4]: > 100 µM | TGI [5]: > 100 µM | TGI [8]: > 100 µM | TGI [9]: > 100 µM | TGI [11]: > 100 µM | TGI [12]: > 100 µM | TGI [13]: > 100 µM | TGI [14]: > 100 µM | TGI [15]: > 100 µM | TGI [52]: > 100 µM | TGI [17]: > 100 µM | TGI [18]: > 100 µM | TGI [19]: > 100 µM | TGI [20]: > 100 µM | TGI [21]: > 100 µM | TGI [53]: > 100 µM | TGI [25]: > 100 µM | TGI [54]: > 100 µM | TGI [26]: > 100 µM | TGI [27]: > 100 µM | TGI [28]: > 100 µM | TGI [55]: > 100 µM | TGI [30]: > 100 µM | TGI [31]: > 100 µM | TGI [32]: > 100 µM | TGI [33]: > 100 µM | TGI [56]: > 100 µM | TGI [34]: > 100 µM | TGI [36]: > 100 µM | TGI [37]: > 100 µM | TGI [38]: > 100 µM | TGI [39]: > 100 µM | TGI [40]: > 100 µM | TGI [41]: > 100 µM | TGI [42]: > 100 µM | TGI [43]: > 100 µM | TGI [44]: > 100 µM | TGI [45]: > 100 µM | TGI [57]: > 100 µM | TGI [46]: > 100 µM | TGI [47]: > 100 µM | TGI [48]: > 100 µM | TGI [49]: > 100 µM | TGI [50]: > 100 µM | TGI [51]: > 100 µM | TGI [58]: > 100 µM

O=C(NC(=O)c1cn(CCN(CCO)C(=O)NCCCCCCNC(=O)N(CCO)CCn2cc(C(=O)NC(=O)OCc3ccccc3)c(=O)[nH]c2=O)c(=O)[nH]c1=O)OCc1ccccc1
TGI [1]: > 100 µM | TGI [3]: > 100 µM | TGI [4]: > 100 µM | TGI [5]: > 100 µM | TGI [6]: > 100 µM | TGI [7]: > 100 µM | TGI [8]: > 100 µM | TGI [9]: > 100 µM | TGI [10]: > 100 µM | TGI [11]: > 100 µM | TGI [13]: > 100 µM | TGI [14]: > 100 µM | TGI [59]: > 100 µM | TGI [15]: > 100 µM | TGI [16]: > 100 µM | TGI [52]: > 100 µM | TGI [17]: > 100 µM | TGI [18]: > 100 µM | TGI [19]: > 100 µM | TGI [21]: > 100 µM | TGI [22]: > 100 µM | TGI [23]: > 100 µM | TGI [24]: > 100 µM | TGI [25]: > 100 µM | TGI [54]: > 100 µM | TGI [27]: > 100 µM | TGI [28]: > 100 µM | TGI [29]: > 100 µM | TGI [30]: > 100 µM | TGI [31]: > 100 µM | TGI [32]: > 100 µM | TGI [33]: > 100 µM | TGI [56]: > 100 µM | TGI [34]: > 100 µM | TGI [36]: > 100 µM | TGI [37]: > 100 µM | TGI [38]: > 100 µM | TGI [39]: > 100 µM | TGI [40]: > 100 µM | TGI [41]: > 100 µM | TGI [42]: > 100 µM | TGI [43]: > 100 µM | TGI [44]: > 100 µM | TGI [45]: > 100 µM | TGI [46]: > 100 µM | TGI [47]: > 100 µM | TGI [48]: > 100 µM | TGI [49]: > 100 µM | TGI [50]: > 100 µM | TGI [51]: > 100 µM | TGI [58]: > 100 µM

COc1cc([C@@H]2c3cc4c(cc3[C@@H](OC(=O)c3ccc(N)cc3)C3COC(=O)[C@@H]32)OCO4)cc(OC)c1O (stereo partly specified)
TGI [1]: 59 µM | TGI [2]: 31.5 µM | TGI [3]: 28.1 µM | TGI [4]: 28.2 µM | TGI [5]: > 95 µM | TGI [6]: > 95 µM | TGI [7]: 18.9 µM | TGI [8]: > 95 µM | TGI [10]: 61.9 µM | TGI [11]: > 95 µM | TGI [12]: 36.3 µM | TGI [13]: > 95 µM | TGI [14]: 56.1 µM | TGI [59]: 22.2 µM | TGI [15]: > 95 µM | TGI [16]: 26.9 µM | TGI [52]: 20.7 µM | TGI [17]: 21.2 µM | TGI [18]: 17.3 µM | TGI [19]: > 95 µM | TGI [20]: 44.7 µM | TGI [21]: 3.57 µM | TGI [22]: 50.7 µM | TGI [53]: > 95 µM | TGI [23]: > 95 µM | TGI [24]: > 95 µM | TGI [25]: 63.5 µM | TGI [54]: 67.4 µM | TGI [26]: 33.6 µM | TGI [27]: 14.4 µM | TGI [28]: 46.7 µM | TGI [55]: 5.35 µM | TGI [29]: 35 µM | TGI [30]: > 95 µM | TGI [31]: > 95 µM | TGI [32]: 78.5 µM | TGI [33]: 58 µM | TGI [56]: > 95 µM | TGI [34]: 42 µM | TGI [35]: > 95 µM | TGI [36]: > 95 µM | TGI [37]: 7.99 µM | TGI [38]: 59.6 µM | TGI [39]: > 95 µM | TGI [40]: 16.7 µM | TGI [41]: 20.7 µM | TGI [42]: 40.1 µM | TGI [43]: > 95 µM | TGI [44]: 36.4 µM | TGI [45]: > 95 µM | TGI [46]: > 95 µM | TGI [47]: 94.2 µM | TGI [48]: 28.7 µM | TGI [49]: > 95 µM | TGI [50]: 19.5 µM | TGI [51]: 34.5 µM

Source: PubChem BioAssay (NCI)
